≈ marks a conversion by molar mass, not a printed value. Read-outs that look alike come from different tables or passages of the source.
Legend:
[1] = test system: HIV-1 (RF) in MT-2 cells; assay: microbe, parasite or virus in culture; assay type: cell-based
In short: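 HIV-1 laboratory strains (RF, MN, IIIB) grown in H9 cells in RPMI 1640 with 5% FCS; infections in MT-2 cells. Viral RNA quantified by hybridization with biotinylated gag/pol capture probes on streptavidin plates and alkaline phosphatase-conjugated reporter probes; BH10 gag-pol in vitro transcripts serve as RNA standards.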

[2] = molecular target: single-chain tethered dimer of HIV protease (Human immunodeficiency virus 1, UniProt P04585); assay: biochemical; assay type: biochemical; parameters: fused on or other part: A second copy of the same protease unit is joined to the first by a short peptide tether, giving one polypeptide
[3] = Table 2u (second printing), HPLC method, read-out: K1 (HPLC)
[4] = Table 2u, HPLC method, read-out: K1 (HPLC)
[5] = Human immunodeficiency virus 1, MT2, Table 1e, read-out: IC90
[6] = read-out: Ki (HPLC), Table 1e, cells marked (HPLC)
[7] = Human immunodeficiency virus 1, MT2, 48 h, Table 2d, class symbols, read-out: IC90
[8] = read-out: HPLC K1, Table 2d, class symbols
[9] = Table 2d, class symbols, read-out: HPLC K1

Compound: CCNCc1ccc(C(=O)OCc2ccc(CN3C(=O)N(Cc4ccc(COC(=O)c5ccc(CNCC)cc5)cc4)[C@H](Cc4ccccc4)[C@H](O)[C@@H](O)[C@H]3Cc3ccccc3)cc2)cc1.Cl [29V]
- IC90 ([1]; Table 2s): +++ (+++=<10 μg/mL)
- Ki ([2]; Table 2s, read-out: Ki (HPLC)): > 1000 nM

Compound: Cl.O=C(OCc1ccc(CN2C(=O)N(Cc3ccc(COC(=O)c4ccc(CNCCO)cc4)cc3)[C@H](Cc3ccccc3)[C@H](O)[C@@H](O)[C@H]2Cc2ccccc2)cc1)c1ccc(CNCCO)cc1 [29W]
- IC90 ([1]; Table 2s): +++ (+++=<10 μg/mL)
- Ki ([2]; Table 2s, read-out: Ki (HPLC)): 10 to 1000 nM

Compound: CN1CCN(Cc2cccc(C(=O)OCc3ccc(CN4C(=O)N(Cc5ccc(COC(=O)c6cccc(CN7CCN(C)CC7)c6)cc5)[C@H](Cc5ccccc5)[C@H](O)[C@@H](O)[C@H]4Cc4ccccc4)cc3)c2)CC1.Cl.Cl [29Y]
- IC90 ([1]; Table 2s): +++ (+++=<10 μg/mL)
- Ki ([2]; Table 2s, read-out: Ki (HPLC)): 10 to 1000 nM

Compound: COC(=O)c1cccc(CN2C(Cc3ccc(F)cc3)C(O)C(O)C(Cc3ccc(F)cc3)N(Cc3cccc(C(=O)OC)c3)S2(=O)=O)c1 (stereo not shown) [31A]
- IC90 ([1]; Table 2u): +++ (+++=<10 μg/mL)
- IC90 ([1]; Table 2u (second printing)): +++ (+++=<10 μg/mL)
- Ki [2, 3]: 10 to 1000 nM
- Ki [2, 4]: 10 to 1000 nM

Compound: COC(=O)c1ccc(CN2C(Cc3ccc(F)cc3)C(O)C(O)C(Cc3ccc(F)cc3)N(Cc3ccc(C(=O)OC)cc3)S2(=O)=O)cc1 (stereo not shown) [31B]
- IC90 ([1]; Table 2u): +++ (+++=<10 μg/mL)
- IC90 ([1]; Table 2u (second printing)): +++ (+++=<10 μg/mL)
- Ki [2, 3]: 10 to 1000 nM
- Ki [2, 4]: 10 to 1000 nM

Compound: O=S1(=O)N(Cc2cccc(CO)c2)C(Cc2ccc(F)cc2)C(O)C(O)C(Cc2ccc(F)cc2)N1Cc1cccc(CO)c1 (stereo not shown) [31C]
- IC90 ([1]; Table 2u): +++ (+++=<10 μg/mL)
- IC90 ([1]; Table 2u (second printing)): +++ (+++=<10 μg/mL)
- Ki [2, 3]: < 10 nM
- Ki [2, 4]: < 10 nM

Compound: O=S1(=O)N(Cc2ccc(CO)cc2)C(Cc2ccc(F)cc2)C(O)C(O)C(Cc2ccc(F)cc2)N1Cc1ccc(CO)cc1 (stereo not shown) [31D]
- IC90 ([1]; Table 2u): +++ (+++=<10 μg/mL)
- IC90 ([1]; Table 2u (second printing)): +++ (+++=<10 μg/mL)
- Ki [2, 3]: < 10 nM
- Ki [2, 4]: < 10 nM

Compound: O=S1(=O)N(Cc2ccccc2)C(Cc2ccccc2)C2OC2C(Cc2ccccc2)N1Cc1ccccc1 (stereo not shown) [31F]
- IC90 ([1]; Table 2u): ++/+ (The ++/+ is used in the cases where an IC90 was determined to be >50 μg/mL)
- IC90 ([1]; Table 2u (second printing)): ++/+ (The ++/+ is used in the cases where an IC90 was determined to be >50 μg/mL)
- Ki [2, 3]: > 1000 nM
- Ki [2, 4]: > 1000 nM

Compound: O=C1N(Cc2ccccc2)[C@H](Cc2ccccc2)C[C@@H](O)[C@@H](Cc2ccccc2)N1Cc1ccccc1 [Example 7AN]
- Mass Spec M + H (class symbols printed in this column) ([1]; Table 1d, lower part): +++ (+++=<10 μg/mL)
- Ki ([2]; read-out: HPLC Ki, Table 1d, lower part): < 10 nM

Compound: O=C1N(CC2CC2)C(CCc2ccccc2)[C@@H](O)[C@@H](Cc2ccccc2)N1CC1CC1 (stereo partly shown) [Example 8H]
- IC90 [1, 5]: < 10 µg/mL
- Ki [2, 6]: < 10 nM

Compound: O=C1N(Cc2cccc(O)c2)C(CCc2ccccc2)[C@@H](O)[C@@H](Cc2ccccc2)N1Cc1cccc(O)c1 (stereo partly shown) [Example 8I]
- IC90 [1, 5]: < 10 µg/mL
- Ki [2, 6]: < 10 nM

Compound: O=C1N(CC2CC2)C(C(F)Cc2ccccc2)C[C@@H](Cc2ccccc2)N1CC1CC1 (stereo partly shown) [Example 8N]
- IC90 [1, 5]: < 10 µg/mL
- Ki [2, 6]: > 1000 nM

Compound: O=C1N(Cc2cccc(CNO)c2)C(Cc2ccccc2)C(O)C(O)C(Cc2ccccc2)N1Cc1cccc(CNO)c1 (stereo not shown) [Example 9B]
- IC90 [1, 7]: < 10 µg/mL
- Ki [2, 8]: 10 to 1000 nM

Compound: O=C1N(Cc2cccc(CNOCc3ccccc3)c2)C(Cc2ccccc2)C(O)C(O)C(Cc2ccccc2)N1Cc1cccc(CNOCc2ccccc2)c1 (stereo not shown) [Example 9F]
- IC90 ([1]; Table 2d, class symbols): + (+=>100 μg/mL)
- Ki [2, 9]: 10 to 1000 nM

Compound: CC(O)c1cccc(CN2C(=O)N(Cc3cccc(C(C)O)c3)C(Cc3ccccc3)C(O)C(O)C2Cc2ccccc2)c1 (stereo not shown) [Example 9H]
- IC90 [1, 7]: < 10 µg/mL
- Ki [2, 8]: 10 to 1000 nM

Compound: O=C1N(Cc2cccc(C=NCCO)c2)C(Cc2ccccc2)C(O)C(O)C(Cc2ccccc2)N1Cc1cccc(C=NCCO)c1 (stereo not shown) [Example 9J]
- IC90 [1, 7]: < 10 µg/mL
- Ki [2, 8]: 10 to 1000 nM

Compound: O=C1N(Cc2cccc(C=NCCO)c2)C(Cc2ccccc2)C(O)C(O)C(Cc2ccccc2)N1Cc1cccc(C2NCCO2)c1 (stereo not shown) [Example 9K]
- IC90 ([1]; Table 2d, class symbols): +++ (+++=<10 μg/mL)
- Ki [2, 9]: 10 to 1000 nM

Compound: O=C1N(Cc2cccc(Br)c2)C(Cc2ccccc2)C(O)C(O)C(Cc2ccccc2)N1Cc1cccc(C#CCO)c1 (stereo not shown) [Example 9N]
- IC90 [1, 7]: < 10 µg/mL
- Ki [2, 8]: 10 to 1000 nM

Compound: CC(O)c1cccc(CN2C(=O)N(Cc3cccc(Br)c3)C(Cc3ccccc3)C(O)C(O)C2Cc2ccccc2)c1 (stereo not shown) [Example 9R]
- IC90 [1, 7]: < 10 µg/mL
- Ki [2, 8]: 10 to 1000 nM

Compound: O=Cc1cc(CN2C(=O)N(Cc3ccc(O)cc3)C(Cc3ccccc3)C(O)C(O)C2Cc2ccccc2)ccc1O (stereo not shown) [Example 11E]
- IC90 [1, 7]: < 10 µg/mL
- Ki [2, 8]: < 10 nM

Compound: NCCCCCCN1C(=O)N(CCCCCCN)C(Cc2ccccc2)C(O)C(O)C1Cc1ccccc1 (stereo not shown) [Example 12A]
- IC90 [1, 7]: > 100 µg/mL
- Ki [2, 8]: > 1000 nM

Compound: NCCCCCCN1C(=O)N(Cc2ccccc2)C(Cc2ccccc2)C(O)C(O)C1Cc1ccccc1 (stereo not shown) [Example 12B]
- IC90 [1, 7]: > 100 µg/mL
- Ki [2, 8]: 10 to 1000 nM

Compound: O=C1NC(Cc2ccccc2)C(O)C(O)C(Cc2ccccc2)N1CCCCCCO (stereo not shown) [Example 12C]
- IC90 [1, 7]: < 10 µg/mL
- Ki [2, 8]: < 10 nM

Compound: O=C1N(CCCCCCO)C(Cc2ccccc2)C(O)C(O)C(Cc2ccccc2)N1CCCCCCO (stereo not shown) [Example 12D]
- IC90 [1, 7]: < 10 µg/mL
- Ki [2, 8]: < 10 nM

Compound: O=C1N(CCCCCCO)C(Cc2ccccc2)C(O)C(O)C(Cc2ccccc2)N1CC1CC1 (stereo not shown) [Example 12E]
- IC90 [1, 7]: < 10 µg/mL
- Ki [2, 8]: < 10 nM

Compound: O=C1N(CCCCO)C(Cc2ccccc2)C(O)C(O)C(Cc2ccccc2)N1CCCCO (stereo not shown) [Example 12F]
- IC90 [1, 7]: 10 to 100 µg/mL (≈ 21.2 to 212 µM)
- Ki [2, 8]: 10 to 1000 nM

Compound: O=C(O)CCCCCN1C(=O)N(CCCCCC(=O)O)C(Cc2ccccc2)C(O)C(O)C1Cc1ccccc1 (stereo not shown) [Example 12G]
- IC90 [1, 7]: < 10 µg/mL
- Ki [2, 8]: < 10 nM

Compound: COC(=O)CCCCCN1C(=O)N(CCCCCC(=O)OC)C(Cc2ccccc2)C(O)C(O)C1Cc1ccccc1 (stereo not shown) [Example 12H]
- IC90 [1, 7]: 10 to 100 µg/mL (≈ 17.2 to 172 µM)
- Ki [2, 8]: 10 to 1000 nM

Compound: COC(=O)CCCCCN1C(=O)N(CCCCCC(=O)O)C(Cc2ccccc2)C(O)C(O)C1Cc1ccccc1 (stereo not shown) [Example 12I]
- IC90 ([1]; Table 2d, class symbols): + (+=>100 μg/mL)
- Ki [2, 9]: < 10 nM

Compound: O=C1N(Cc2cccc(I)c2)C(Cc2ccccc2)C(O)C(O)C(Cc2ccccc2)N1Cc1cccc(I)c1 (stereo not shown) [Example 12J]
- IC90 [1, 7]: < 10 µg/mL
- Ki [2, 8]: < 10 nM

Compound: O=C1N(CCCCCCCCO)C(Cc2ccccc2)C(O)C(O)C(Cc2ccccc2)N1CCCCCCCCO (stereo not shown) [Example 12K]
- IC90 [1, 7]: < 10 µg/mL
- Ki [2, 8]: 10 to 1000 nM

Compound: O=C1N(Cc2ccccc2)C(Cc2ccccc2)C(O)C(O)C(Cc2ccccc2)N1CC1CC1CO (stereo not shown) [Example 12M]
- IC90 [1, 7]: < 10 µg/mL
- Ki [2, 8]: < 10 nM

Compound: O=C1NC(Cc2ccccc2)C(O)C(O)C(Cc2ccccc2)N1CC1CC1CO (stereo not shown) [Example 12N]
- IC90 [1, 7]: > 100 µg/mL
- Ki [2, 8]: 10 to 1000 nM

Compound: O=C1N(CCCCCCCO)C(Cc2ccccc2)C(O)C(O)C(Cc2ccccc2)N1CCCCCCCO (stereo not shown) [Example 12P]
- IC90 [1, 7]: < 10 µg/mL
- Ki [2, 8]: 10 to 1000 nM

Compound: NC(=O)Sc1cccc(CN2C(=O)N(Cc3cccc(SC(N)=O)c3)C(Cc3ccccc3)C(O)C(O)C2Cc2ccccc2)c1 (stereo not shown) [Example 12Q]
- IC90 ([1]; Table 2d, class symbols): + (+=>100 μg/mL)
- Ki [2, 9]: < 10 nM

Compound: O=C1NC(Cc2ccccc2)C(O)C(O)C(Cc2ccccc2)N1CCOCCO (stereo not shown) [Example 12T]
- IC90 [1, 7]: > 100 µg/mL
- Ki [2, 8]: 10 to 1000 nM

Compound: O=C1N(CCOCCO)C(Cc2ccccc2)C(O)C(O)C(Cc2ccccc2)N1CCOCCO (stereo not shown) [Example 12U]
- IC90 [1, 7]: 10 to 100 µg/mL (≈ 19.9 to 199 µM)
- Ki [2, 8]: > 1000 nM

Compound: CC(=O)OCCCCCCN1C(=O)N(CCCCCCO)C(Cc2ccccc2)C(O)C(O)C1Cc1ccccc1 (stereo not shown) [Example 12V]
- IC90 [1, 7]: < 10 µg/mL
- Ki [2, 8]: 10 to 1000 nM

Compound: CNC(=O)OCCCCCCN1C(=O)N(CCCCCCOC(=O)NC)C(Cc2ccccc2)C(O)C(O)C1Cc1ccccc1 (stereo not shown) [Example 12W]
- IC90 [1, 7]: 10 to 100 µg/mL (≈ 15.6 to 156 µM)
- Ki [2, 8]: 10 to 1000 nM

Source: patent publication USRE37781E1, “Substituted cyclic carbonyls and derivatives thereof useful as retroviral protease inhibitors” (DuPont Pharmaceuticals Company, priority 1991, dated 2002)
